The source of these data is BindingDB's records for doi:10.1016/j.bioorg.2016.07.007 (Jamia Hamdard (Hamdard University), 2016).

The target in this assay is Glycogen synthase kinase-3 beta (Homo sapiens, UniProt P49841). In words: GSK-3β activity assay.
Sequence of Glycogen synthase kinase-3 beta (P49841 whole entry): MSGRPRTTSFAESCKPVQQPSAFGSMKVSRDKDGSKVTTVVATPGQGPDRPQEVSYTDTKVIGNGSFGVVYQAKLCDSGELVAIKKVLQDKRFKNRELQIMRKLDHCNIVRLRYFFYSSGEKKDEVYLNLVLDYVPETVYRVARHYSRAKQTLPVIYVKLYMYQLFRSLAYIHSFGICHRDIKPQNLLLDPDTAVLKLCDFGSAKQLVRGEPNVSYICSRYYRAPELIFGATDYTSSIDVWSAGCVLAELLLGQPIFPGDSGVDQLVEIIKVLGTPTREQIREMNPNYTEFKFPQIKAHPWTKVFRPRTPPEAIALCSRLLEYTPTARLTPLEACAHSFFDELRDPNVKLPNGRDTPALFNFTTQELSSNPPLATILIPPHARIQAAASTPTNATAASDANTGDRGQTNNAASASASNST
Protocol: In a typical assay, 10 µL of test compound of different concentrations (dissolved in dimethyl sulfoxide [DMSO] and diluted with assay buffer) and 10 µL (20 ng) of enzyme were added to each well followed by 20 µL of assay buffer containing 25 µM substrate and 1 µM ATP. The final DMSO concentration in the reaction mixturewas less than 1%. After incubation at 30 °C for 30 min, the enzymatic reaction was quenched with 40 µL of Kinase-Glo reagent. Luminescence was recorded after 10 min using Infinite F200 PRO multimode reader (Tecan).
`Cn1c(SCc2cn(-c3ccc(Br)cc3)nn2)nc(-c2ccccc2)cc1=O` [Pyrimidin-4-one-1,2,3-triazole conjugate, 3a]: the IC50 came to 744 nM.
For `Cn1c(SCc2cn(-c3ccc(F)cc3)nn2)nc(-c2ccccc2)cc1=O` [Pyrimidin-4-one-1,2,3-triazole conjugate, 3b] the value was 200 nM.
Turning to `Cn1c(SCc2cn(-c3ccccc3Br)nn2)nc(-c2ccccc2)cc1=O` [Pyrimidin-4-one-1,2,3-triazole conjugate, 3c], the IC50 came out at 437 nM.
For `Cc1ccccc1-n1cc(CSc2nc(-c3ccccc3)cc(=O)n2C)nn1` [Pyrimidin-4-one-1,2,3-triazole conjugate, 3d] the value was 302 nM.
For `Cn1c(SCc2cn(-c3ccccc3)nn2)nc(-c2ccccc2)cc1=O` [Pyrimidin-4-one-1,2,3-triazole conjugate, 3e] the value was 916 nM; for `Cn1c(SCc2cn(-c3ccc(C(C)(C)C)cc3)nn2)nc(-c2ccccc2)cc1=O` [Pyrimidin-4-one-1,2,3-triazole conjugate, 3f], 1340 nM.
`CCc1ccc(-n2cc(CSc3nc(-c4ccccc4)cc(=O)n3C)nn2)cc1` [Pyrimidin-4-one-1,2,3-triazole conjugate, 3g] had an IC50 of 94 nM.
For `CCOc1ccc(-n2cc(CSc3nc(-c4ccccc4)cc(=O)n3C)nn2)cc1` [Pyrimidin-4-one-1,2,3-triazole conjugate, 3h] the value was 1440 nM.
For `COc1ccccc1-n1cc(CSc2nc(-c3ccccc3)cc(=O)n2C)nn1` [Pyrimidin-4-one-1,2,3-triazole conjugate, 3i] the value was 1310 nM; for `Cn1c(SCc2cn(-c3ccccc3F)nn2)nc(-c2ccccc2)cc1=O` [Pyrimidin-4-one-1,2,3-triazole conjugate, 3j], 122 nM; for `Cn1c(SCc2cn(-c3cccc(Cl)c3)nn2)nc(-c2ccccc2)cc1=O` [Pyrimidin-4-one-1,2,3-triazole conjugate, 3k], 502 nM.
For `Cn1c(SCc2cn(-c3cccnc3)nn2)nc(-c2ccccc2)cc1=O` [Pyrimidin-4-one-1,2,3-triazole conjugate, 3l] the value was 1740 nM; for `Cn1c(SCc2cn(-c3ccccc3Cl)nn2)nc(-c2ccccc2)cc1=O` [Pyrimidin-4-one-1,2,3-triazole conjugate, 3m], 577 nM.
`Cc1ccc(-n2cc(CSc3nc(-c4ccccc4)cc(=O)n3C)nn2)cc1C` [Pyrimidin-4-one-1,2,3-triazole conjugate, 3n] gave an IC50 of 82 nM.
Take `COc1ccc(-n2cc(CSc3nc(-c4ccccc4)cc(=O)n3C)nn2)cc1` [Pyrimidin-4-one-1,2,3-triazole conjugate, 3o]: the IC50 stood at 1140 nM.
For `Cn1c(SCc2cn(-c3ccc(Cl)cc3)nn2)nc(-c2ccccc2)cc1=O` [Pyrimidin-4-one-1,2,3-triazole conjugate, 3p] the value was 1560 nM; for `Cn1c(SCc2cn(-c3ccc([N+](=O)[O-])cc3)nn2)nc(-c2ccccc2)cc1=O` [Pyrimidin-4-one-1,2,3-triazole conjugate, 3q], 587 nM; for `Cn1c(SCc2cn(-c3cccc([N+](=O)[O-])c3)nn2)nc(-c2ccccc2)cc1=O` [Pyrimidin-4-one-1,2,3-triazole conjugate, 3r], 153 nM.

A word on the IC50: it is the point on the concentration scale where inhibition reaches its midpoint.
